Measurements as given in patent US20170368082A1, “FORMULATIONS OF BRINCIDOFOVIR” (priority 2016, published 2017).
Like-named read-outs stand apart in the source and are kept apart here.

Experiment: Phase 2 toxicokinetics of brincidofovir and cidofovir in plasma
Assay type: in vivo, Sprague-Dawley CD rats
Conditions: plasma; for AUC(0-t) / Cmax / Tmax / concentration at 1 h / concentration at 2 h / concentration at 8 h / concentration at 24 h / concentration at 0 h: Sprague-Dawley CD, rat; for AUC(0-t) / Cmax / Tmax: iv, brincidofovir in plasma; for Tmax: read-out: Tmax; for concentration at 1 h / concentration at 2 h / concentration at 8 h / concentration at 24 h / concentration at 0 h: intravenous
Protocol: Plasma samples (108) were collected 2 hours following the initiation of dosing on Day 1 and Day 7 (Group 1), or at 1, 2, 8, and 24 hours following the initiation of dosing on Day 1, and prior to administration and at 2, 8, and 24 hours following the initiation of dosing on Day 7 (Groups 2 and 3), and analyzed to determine the concentrations of brincidofovir and the metabolite, cidofovir), by LC/MS/MS.
Approximately 0.4 mL of whole blood was obtained via the tail vein from each animal at each time point. Animals were not fasted prior to blood collection. Blood was collected into tubes containing K2EDTA anticoagulant and placed on wet ice in an upright position, per facility SOP prior to processing. Plasma was separated by centrifugation (10 minutes at approximately 2000 g, at approximately 2-8° C.). Approximately 0.10 mL of plasma was transferred into a single cryotube appropriately labeled with study number, animal number, time point, date of sampling and sample type. Remaining plasma was transferred into a second cryotube and retained as a backup sample. Plasma frozen at approximately −80±10° C. within approximately 2 hours after collection of each blood sample until analysis. Animals were euthanized (CO2 inhalation) after the final blood collection.
In general, TK parameters were estimated using mean plasma concentrations of brincidofovir and cidofovir derived from the composite blood sampling design using Phoenix WinNonLin (V 6.3).
A composite blood sampling design was used such that each rat was sampled twice per sampling day. Blood was collected via tail vein from unanesthetized animals into tubes containing anticoagulant and placed on wet ice in an upright position. Animals were not fasted prior to blood collection. Plasma was separated by centrifugation (for 10 minutes at approximately 2000 g, at approximately 2-8° C.), and transferred into individually labeled cryotubes. All cryotubes containing the collected plasma samples were appropriately labeled as to study number, animal number, time point, date of sampling and sample type. All plasma samples were obtained and frozen at approximately −80° C. (±10° C.) within approximately 2 hours after collection of each blood sample until analysis.
Rat plasma bioanalysis was conducted by Pyxant Laboratories. Plasma samples were analyzed for concentrations of brincidofovir and cidofovir using a method based upon protein precipitation extraction followed by LC-MS/MS analysis; calibration ranges for brincidofovir and cidofovir were 1.00-1500 ng/mL and 5.00-750 ng/mL, respectively, (Pyxant study number 3025) for a 50 μL aliquot of rat plasma. Sample analysis for ISR was not performed as part of this non-GLP study.
For the generation of Mean Profiles, all sample concentrations that were below the limit of quantitation (BLQ) were set to 0.
All pharmacokinetic parameter estimates were completed using a Non-Compartmental Model (Model 200-202 for IV infusion administration). The AUClast and AUCinf were calculated using the linear up log down trapezoidal rule.

[1] = female, 15 mg/kg, 15 mg/kg 2-hour IV infusion, Female rats, Day 1
[2] = female, 15 mg/kg, 15 mg/kg 2-hour IV infusion, Female rats, Day 7
[3] = male, 1 mg/kg, brincidofovir 1 mg/kg 2-h IV infusion, male rats, Day 1, BLQ imputed as zero, read-out: Imputed Concentration, Mean
[4] = male, 1 mg/kg, brincidofovir 1 mg/kg 2-h IV infusion, male rats, Day 1, BLQ imputed as zero, read-out: Imputed Concentration, individual animals
[5] = male, 1 mg/kg, 1 mg/kg 2-hour IV infusion, Male rats, Day 1
[6] = male, 1 mg/kg, 1 mg/kg 2-hour IV infusion, Male rats, Day 7
[7] = male, 15 mg/kg, 15 mg/kg 2-hour IV infusion, Male rats, Day 1
[8] = male, 15 mg/kg, 15 mg/kg 2-hour IV infusion, Male rats, Day 7

CCCCCCCCCCCCCCCCOCCCOP(=O)(O)CO[C@H](CO)Cn1ccc(N)nc1=O [Brincidofovir]
AUC(0-t) [1]: 7360 ng·h/mL | Cmax [1]: 3470 ng/mL | Tmax [1]: 1 h | AUC(0-t) [2]: 3420 ng·h/mL | Cmax [2]: 1660 ng/mL | Tmax [2]: 2 h | concentration at 1 h [3]: 227 ng/mL | concentration at 1 h [4]: 156 ng/mL | concentration at 2 h [3]: 235 ng/mL | concentration at 2 h [4]: 220 ng/mL | concentration at 8 h (male, 1 mg/kg, brincidofovir 1 mg/kg 2-h IV infusion, male rats, Day 1, 8 h, BLQ imputed as zero, read-out: Imputed Concentration, Mean): 0 ng/mL | concentration at 8 h (male, 1 mg/kg, brincidofovir 1 mg/kg 2-h IV infusion, male rats, Day 1, 8 h, BLQ imputed as zero, read-out: Imputed Concentration, individual animals): 0 ng/mL | concentration at 24 h (male, 1 mg/kg, brincidofovir 1 mg/kg 2-h IV infusion, male rats, Day 1, 24 h, BLQ imputed as zero, read-out: Imputed Concentration, Mean): 0 ng/mL | concentration at 24 h (male, 1 mg/kg, brincidofovir 1 mg/kg 2-h IV infusion, male rats, Day 1, 24 h, BLQ imputed as zero, read-out: Imputed Concentration, individual animals): 0 ng/mL | concentration at 0 h (male, 1 mg/kg, brincidofovir 1 mg/kg 2-h IV infusion, male rats, Day 7, 0 h, BLQ imputed as zero, read-out: Imputed Concentration, Mean): 0 ng/mL | concentration at 0 h (male, 1 mg/kg, brincidofovir 1 mg/kg 2-h IV infusion, male rats, Day 7, 0 h, BLQ imputed as zero, read-out: Imputed Concentration, individual animals): 0 ng/mL | concentration at 24 h (male, 15 mg/kg, brincidofovir 15 mg/kg, Male, Day 1, 24 h, read-out: brincidofovir Imputed Mean Concentration (IMC)): 1.22 ng/mL | concentration at 24 h (male, 15 mg/kg, brincidofovir 15 mg/kg, Male, Day 1, 24 h, read-out: brincidofovir Mean Concentration (MC)): 1.22 ng/mL | concentration at 8 h (male, 15 mg/kg, brincidofovir 15 mg/kg, Male, Day 7, 8 h, read-out: brincidofovir Imputed Mean Concentration (IMC)): 8.72 ng/mL | concentration at 24 h (male, 15 mg/kg, brincidofovir 15 mg/kg, Male, Day 7, 24 h, read-out: brincidofovir Imputed Mean Concentration (IMC)): 1.45 ng/mL | concentration at 24 h (male, 15 mg/kg, brincidofovir 15 mg/kg, Male, Day 7, 24 h, read-out: brincidofovir Mean Concentration (MC)): 1.45 ng/mL | concentration at 8 h (male, 15 mg/kg, 15 mg/kg, male rats, Day 1, 8 h, read-out: C (Concentration), individual animals): 10.7 ng/mL | concentration at 8 h (male, 15 mg/kg, 15 mg/kg, male rats, Day 1, 8 h, read-out: IC (Imputed Concentration), individual animals): 10.7 ng/mL | concentration at 24 h (male, 15 mg/kg, 15 mg/kg, male rats, Day 1, 24 h, read-out: C (Concentration), individual animals): 1.2 ng/mL | concentration at 24 h (male, 15 mg/kg, 15 mg/kg, male rats, Day 1, 24 h, read-out: IC (Imputed Concentration), individual animals): 1.2 ng/mL | concentration at 8 h (male, 15 mg/kg, 15 mg/kg, male rats, Day 7, 8 h, read-out: C (Concentration), individual animals): 9.82 ng/mL | concentration at 8 h (male, 15 mg/kg, 15 mg/kg, male rats, Day 7, 8 h, read-out: IC (Imputed Concentration), individual animals): 9.82 ng/mL | concentration at 24 h (male, 15 mg/kg, 15 mg/kg, male rats, Day 7, 24 h, read-out: C (Concentration), individual animals): 1.85 ng/mL | concentration at 24 h (male, 15 mg/kg, 15 mg/kg, male rats, Day 7, 24 h, read-out: IC (Imputed Concentration), individual animals): 1.85 ng/mL | Cmax [5]: 235 ng/mL | Tmax [5]: 2 h | Cmax [6]: 208 ng/mL | Tmax [6]: 2 h | AUC(0-t) [7]: 8780 ng·h/mL | Cmax [7]: 4370 ng/mL | Tmax [7]: 1 h | AUC(0-t) [8]: 4090 ng·h/mL | Cmax [8]: 1910 ng/mL | Tmax [8]: 2 h | C (Concentration), individual animals (1 mg/kg, female rats, Day 1, 8 h, listed as BCV, 1 mg/kg): BLQ | C (Concentration), individual animals (1 mg/kg, female rats, Day 1, 24 h): BLQ | C (Concentration), individual animals (1 mg/kg, female rats, Day 7, 0 h): BLQ | C (Concentration), individual animals (1 mg/kg, female rats, Day 7, 8 h, listed as BCV, 1 mg/kg): BLQ | C (Concentration), individual animals (1 mg/kg, female rats, Day 7, 24 h): BLQ | C (Concentration), individual animals (1 mg/kg, male rats, Day 1, 8 h): BLQ | C (Concentration), individual animals (1 mg/kg, male rats, Day 1, 24 h): BLQ | C (Concentration), individual animals (1 mg/kg, male rats, Day 7, 0 h): BLQ | C (Concentration), individual animals (1 mg/kg, male rats, Day 7, 8 h): BLQ | C (Concentration), individual animals (1 mg/kg, male rats, Day 7, 24 h): BLQ | C (Concentration), individual animals (15 mg/kg, female rats, Day 7, 0 h): BLQ
